The text below walks through data of US10696672B2 (Pliant Therapeutics, Inc., priority 2016, dated 2020).

Sequence of recombinant human integrin αvβ6 (P06756 31-992): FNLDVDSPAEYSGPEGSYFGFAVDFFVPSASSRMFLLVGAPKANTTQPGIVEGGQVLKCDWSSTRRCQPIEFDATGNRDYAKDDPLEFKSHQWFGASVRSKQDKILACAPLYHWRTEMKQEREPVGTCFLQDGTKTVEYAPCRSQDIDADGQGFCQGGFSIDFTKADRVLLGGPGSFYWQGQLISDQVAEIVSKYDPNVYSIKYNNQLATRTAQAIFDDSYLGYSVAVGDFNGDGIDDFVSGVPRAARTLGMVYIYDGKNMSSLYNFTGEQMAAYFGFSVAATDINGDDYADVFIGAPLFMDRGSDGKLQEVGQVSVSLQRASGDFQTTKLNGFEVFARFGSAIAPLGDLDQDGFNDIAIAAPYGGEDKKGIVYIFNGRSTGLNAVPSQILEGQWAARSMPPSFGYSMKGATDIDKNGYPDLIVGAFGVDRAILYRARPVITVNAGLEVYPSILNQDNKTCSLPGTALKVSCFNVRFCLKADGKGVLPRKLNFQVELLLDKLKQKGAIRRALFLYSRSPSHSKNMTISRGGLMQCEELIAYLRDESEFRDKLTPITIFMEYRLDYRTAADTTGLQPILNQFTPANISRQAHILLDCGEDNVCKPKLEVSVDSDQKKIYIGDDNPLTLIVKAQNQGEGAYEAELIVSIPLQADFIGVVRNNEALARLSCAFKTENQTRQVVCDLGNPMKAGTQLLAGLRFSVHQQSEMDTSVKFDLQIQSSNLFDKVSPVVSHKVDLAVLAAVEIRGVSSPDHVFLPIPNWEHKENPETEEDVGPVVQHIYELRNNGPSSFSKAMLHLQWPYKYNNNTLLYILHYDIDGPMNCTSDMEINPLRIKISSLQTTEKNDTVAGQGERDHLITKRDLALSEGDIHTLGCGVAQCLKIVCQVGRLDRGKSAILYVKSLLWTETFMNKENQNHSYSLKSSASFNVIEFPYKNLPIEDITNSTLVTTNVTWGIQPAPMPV
Sequence of recombinant human integrin αvβ6 (P18564 22-707): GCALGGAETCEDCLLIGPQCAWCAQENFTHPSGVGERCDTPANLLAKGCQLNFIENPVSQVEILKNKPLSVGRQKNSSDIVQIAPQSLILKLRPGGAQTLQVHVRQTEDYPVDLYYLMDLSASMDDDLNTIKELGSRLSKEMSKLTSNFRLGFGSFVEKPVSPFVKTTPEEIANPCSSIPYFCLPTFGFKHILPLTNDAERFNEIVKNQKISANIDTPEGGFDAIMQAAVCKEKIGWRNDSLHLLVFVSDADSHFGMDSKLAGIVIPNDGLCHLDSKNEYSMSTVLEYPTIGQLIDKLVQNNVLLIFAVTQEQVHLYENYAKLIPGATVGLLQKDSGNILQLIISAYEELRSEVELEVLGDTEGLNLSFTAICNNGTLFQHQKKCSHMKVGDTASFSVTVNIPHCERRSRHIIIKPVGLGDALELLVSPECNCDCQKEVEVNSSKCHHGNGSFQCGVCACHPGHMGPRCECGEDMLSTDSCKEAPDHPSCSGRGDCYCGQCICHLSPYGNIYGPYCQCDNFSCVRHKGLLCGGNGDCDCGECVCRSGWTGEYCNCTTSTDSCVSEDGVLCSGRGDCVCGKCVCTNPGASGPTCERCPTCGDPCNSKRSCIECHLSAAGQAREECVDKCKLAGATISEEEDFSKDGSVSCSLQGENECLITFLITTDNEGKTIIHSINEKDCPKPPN

The test has as its target recombinant human integrin αvβ6 (Homo sapiens (Human), UniProt P06756+P18564). Put plainly: Solid phase integrin αvβ6 binding assay. The settings on record: plate-coated integrin; recombinant TGFβ1 LAP 0.67 ug/ml as ligand; 2 hours at 25° C.; read-out: αvβ6 Inhibition IC50 (nM) - range. As to the method:
Example B1—Solid Phase Integrin αvβ6 Binding Assay
Microplates were coated with recombinant human integrin αvβ6 (2 ug/ml) in PBS (100 ul/well 25° C., overnight). The coating solution was removed, washed with wash buffer (0.05% Tween 20; 0.5 mM MnCl2; in 1×TBS). Plate was blocked with 200 ul/well of Block Buffer (1% BSA; 5% sucrose; 0.5 mM MnCl2; in 1×TBS) at 37° C. for 2 h. Dilutions of testing compounds and recombinant TGFβ1 LAP (0.67 ug/ml) in binding buffer (0.05% BSA; 2.5% sucrose; 0.5 mM MnCl2; in 1×TBS) were added. The plate was incubated for 2 hours at 25° C., washed, and incubated for 1 hour with Biotin-Anti-hLAP. Bound antibody was detected by peroxidase-conjugated streptavidin. The IC50 values for testing compounds were calculated by a four-parameter logistic regression.
The compounds tested were compound samples prepared according to procedures described in the Synthetic Examples section, with the stereochemical purity as indicated in the Examples indicated.
For `Cn1ncc2c(C(=O)N[C@@H](CCN3CC[C@@H](CCc4ccc5c(n4)NCCC5)C3)C(=O)O)cccc21` [Compound 27a, (S)-2-(1-methyl-1H-indazole-4-carboxamido)-4-((R)-3-(2-(5,6,7,8-tetrahydro-1,8-naphthyridin-2-yl)ethyl)pyrrolidin-1-yl)butanoic acid], the IC50 is less than 50 nM.

For `Cn1ncc2cccc(C(=O)N[C@@H](CCN3CC[C@@H](CCc4ccc5c(n4)NCCC5)C3)C(=O)O)c21` [Compound 28a, (S)-2-(1-methyl-1H-indazole-7-carboxamido)-4-((R)-3-(2-(5,6,7,8-tetrahydro-1,8-naphthyridin-2-yl)ethyl)pyrrolidin-1-yl)butanoic acid], the concentration for half-maximal inhibition (IC50) is less than 50 nM.

For the compound `O=C(N[C@@H](CCN1CC[C@@H](CCc2ccc3c(n2)NCCC3)C1)C(=O)O)c1ccc2cnn(C(F)F)c2c1` [Compound 29a, (S)-2-(1-(difluoromethyl)-1H-indazole-6-carboxamido)-4-((R)-3-(2-(5,6,7,8-tetrahydro-1,8-naphthyridin-2-yl)ethyl)pyrrolidin-1-yl)butanoic acid], the IC50 is less than 50 nM.

Take `O=C(N[C@@H](CCN1CC[C@@H](CCc2ccc3c(n2)NCCC3)C1)C(=O)O)c1ccc2c(cnn2C(F)F)c1` [Compound 30a, (S)-2-(1-(difluoromethyl)-1H-indazole-5-carboxamido)-4-((R)-3-(2-(5,6,7,8-tetrahydro-1,8-naphthyridin-2-yl)ethyl)pyrrolidin-1-yl)butanoic acid]: the IC50 was less than 50 nM.

Regarding `O=C(NC1CCN(CC[C@H](NC(=O)C2CCC(F)(F)CC2)C(=O)O)CC1)c1ccc2c(n1)NCCC2` [Compound 33], the IC50 is more than 1000 nM.

Consider `O=C(N[C@@H](CCN1CC[C@@H](CCc2ccc3c(n2)NCCC3)C1)C(=O)O)c1cccc2[nH]ncc12` [Compound 35], for which the IC50 is less than 50 nM.

In the case of `O=C(O)[C@H](CCN1CC[C@@H](CCc2ccc3c(n2)NCCC3)C1)NC(=O)[C@@H]1CCCN1Cc1ccccc1` [Compound 36], the IC50 is less than 50 nM.

On to `CC(C)(C(=O)N[C@@H](CCN1CC[C@@H](CCc2ccc3c(n2)NCCC3)C1)C(=O)O)c1cccnc1` [Compound 37], for which the IC50 is less than 50 nM.

Regarding `O=C(N[C@@H](CCN1CC[C@@H](CCc2ccc3c(n2)NCCC3)C1)C(=O)O)C1CCOCC1` [Compound 38], the IC50 was less than 50 nM.

Consider `O=C(N[C@@H](CCN1CC(CCc2ccc3c(n2)NCCC3)C(F)(F)C1)C(=O)O)c1ccccc1` (stereo partly shown) [Compound 39], for which the IC50 was 50 to 250 nM.

Regarding `CC(C)(C)OC(=O)N[C@@H](CCN1CC(CCc2ccc3c(n2)NCCC3)CC(F)(F)C1)C(=O)O` (stereo partly shown) [Compound 40], the IC50 was in the range of 250 to 1000 nM.

For the compound `O=C(N[C@@H](CCN1CC(CCc2ccc3c(n2)NCCC3)CC(F)(F)C1)C(=O)O)c1ccccc1` (stereo partly shown) [Compound 41], the IC50 is 50 to 250 nM.

`Cc1cc(C)n(-c2cccc(C(=O)N[C@@H](CCN3CC(CCc4ccc5c(n4)NCCC5)CC(F)(F)C3)C(=O)O)c2)n1` (stereo partly shown) [Compound 42]: the IC50 was 250 to 1000 nM.

In the case of `O=C(O)[C@H](CCN1CC[C@@H](CCc2ccc3c(n2)NCCC3)C1)NC(=O)[C@@H]1CCCN1c1ccccc1` [Compound 43], the IC50 was less than 50 nM.

In the case of `CC(C)(C(=O)N[C@@H](CCN1CC[C@@H](CCc2ccc3c(n2)NCCC3)C1)C(=O)O)c1ccccc1` [Compound 44], the IC50 is less than 50 nM.

As to `CC(C)(Cc1ccccc1)C(=O)N[C@@H](CCN1CC[C@@H](CCc2ccc3c(n2)NCCC3)C1)C(=O)O` [Compound 45], the IC50 is less than 50 nM.

Take `O=C(N[C@@H](CCN1CC[C@@H](CCc2ccc3c(n2)NCCC3)C1)C(=O)O)[C@H]1CCN(c2ccccn2)C1` [Compound 46]: the IC50 is less than 50 nM.

`O=C(N[C@@H](CCN1CC[C@@H](CCc2ccc3c(n2)NCCC3)C1)C(=O)O)[C@@H]1CCN(c2ccccn2)C1` [Compound 47]: the IC50 was less than 50 nM.

With `N#Cc1cccc(C(=O)N[C@@H](CCN2CC[C@@H](CCc3ccc4c(n3)NCCC4)C2)C(=O)O)c1` [Compound 48], the IC50 is less than 50 nM.

Regarding `Cn1nccc1C(=O)N[C@@H](CCN1CC[C@@H](CCc2ccc3c(n2)NCCC3)C1)C(=O)O` [Compound 49], the IC50 is less than 50 nM.

For the compound `O=C(N[C@@H](CCN1CC[C@@H](CCc2ccc3c(n2)NCCC3)C1)C(=O)O)c1cnccn1` [Compound 50], the IC50 is less than 50 nM.

Consider `O=C(N[C@@H](CCN1CC[C@@H](CCc2ccc3c(n2)NCCC3)C1)C(=O)O)c1cccs1` [Compound 51], for which the IC50 is less than 50 nM.

As to `O=C(N[C@@H](CCN1CCC[C@@](F)(CCc2ccc3c(n2)NCCC3)C1)C(=O)O)c1ccccc1` [Compound 52], the IC50 fell in the range of 50 to 250 nM.

Take `Cc1cc(C)n(-c2cccc(C(=O)N[C@@H](CCN3CCC[C@@](F)(CCc4ccc5c(n4)NCCC5)C3)C(=O)O)c2)n1` [Compound 53]: the IC50 was less than 50 nM.

As to `O=C(N[C@@H](CCN1CCCC(CCc2ccc3c(n2)NCCC3)C1)C(=O)O)c1ccccc1` (stereo partly shown) [Compound 54], the IC50 was less than 50 nM.

Take `O=C(N[C@@H](CCN1CC[C@@H](CCc2ccc3c(n2)NCCC3)C1)C(=O)O)c1cccc(-c2cccs2)c1` [Compound 55]: the IC50 was less than 50 nM.

Take `O=C(N[C@@H](CCN1CC[C@@H](CCc2ccc3c(n2)NCCC3)C1)C(=O)O)c1cccc(-c2ccccc2)c1` [Compound 56]: the IC50 is less than 50 nM.

On to `Cn1nccc1-c1cccc(C(=O)N[C@@H](CCN2CC[C@@H](CCc3ccc4c(n3)NCCC4)C2)C(=O)O)c1` [Compound 57], for which the IC50 was less than 50 nM.

Consider `Cn1cc(-c2cccc(C(=O)N[C@@H](CCN3CC[C@@H](CCc4ccc5c(n4)NCCC5)C3)C(=O)O)c2)cn1` [Compound 58], for which the IC50 is less than 50 nM.

As for `O=C(N[C@@H](CCN1CC[C@@H](CCc2ccc3c(n2)NCCC3)C1)C(=O)O)c1cccc(-c2ncco2)c1` [Compound 59], the IC50 is less than 50 nM.

As for `CC(C)n1ncc2c(C(=O)N[C@@H](CCN3CC[C@@H](CCc4ccc5c(n4)NCCC5)C3)C(=O)O)cccc21` [Compound 60], the IC50 is less than 50 nM.

`CC(C)Cn1ncc2c(C(=O)N[C@@H](CCN3CC[C@@H](CCc4ccc5c(n4)NCCC5)C3)C(=O)O)cccc21` [Compound 61]: the IC50 is less than 50 nM.

As for `O=C(N[C@@H](CCN1CCC[C@@](F)(CCc2ccc3c(n2)NCCC3)C1)C(=O)O)c1cccc(F)c1Cl` [Compound 62], the IC50 was in the range of 50 to 250 nM.

With `O=C(N[C@@H](CCN1CC[C@@](F)(CCc2ccc3c(n2)NCCC3)C1)C(=O)O)c1c(Cl)cccc1Cl` [Compound 63], the IC50 is 50 to 250 nM.

Consider `O=C(N[C@@H](CCN1CC[C@](F)(CCc2ccc3c(n2)NCCC3)C1)C(=O)O)c1c(Cl)cccc1Cl` [Compound 64], for which the IC50 lay within 50 to 250 nM.

For the compound `O=C(N[C@@H](CCN1CC[C@@H](CCc2ccc3c(n2)NCCC3)C1)C(=O)O)c1cccc(-c2cscn2)c1` [Compound 65], the IC50 lay within 50 to 250 nM.

In the case of `O=C(N[C@@H](CCN1CC[C@@H](CCc2ccc3c(n2)NCCC3)C1)C(=O)O)c1cccc(-c2cncs2)c1` [Compound 66], the IC50 was less than 50 nM.

On to `O=C(N[C@@H](CCN1CC[C@@H](CCc2ccc3c(n2)NCCC3)C1)C(=O)O)c1cccc(F)c1F` [Compound 67], for which the IC50 was less than 50 nM.

Regarding `CC(C)(C)c1cccc(C(=O)N[C@@H](CCN2CC[C@@H](CCc3ccc4c(n3)NCCC4)C2)C(=O)O)c1` [Compound 68], the IC50 is less than 50 nM.

As to `Cn1cc(C(=O)N[C@@H](CCN2CC[C@@H](CCc3ccc4c(n3)NCCC4)C2)C(=O)O)cn1` [Compound 69], the IC50 is 50 to 250 nM.

As to `O=C(N[C@@H](CCN1CC[C@@H](CCc2ccc3c(n2)NCCC3)C1)C(=O)O)c1ccncn1` [Compound 70], the IC50 is less than 50 nM.

`CC(C)n1cc2c(C(=O)N[C@@H](CCN3CC[C@@H](CCc4ccc5c(n4)NCCC5)C3)C(=O)O)cccc2n1` [Compound 71]: the IC50 is less than 50 nM.

As for `CC(C)Cn1cc2c(C(=O)N[C@@H](CCN3CC[C@@H](CCc4ccc5c(n4)NCCC5)C3)C(=O)O)cccc2n1` [Compound 72], the IC50 is less than 50 nM.

Take `CCCCC(=O)N1CCCC[C@H]1C(=O)N[C@@H](CCN1CC[C@@H](CCc2ccc3c(n2)NCCC3)C1)C(=O)O` [Compound 73]: the IC50 is less than 50 nM.

On to `O=C(O)[C@H](CCN1CC[C@@H](CCc2ccc3c(n2)NCCC3)C1)NC(=O)[C@@H]1CCCCN1C(=O)C1CCC1` [Compound 74], for which the half-maximal inhibitory concentration (IC50) is less than 50 nM.

For the compound `O=C(Cc1ccccc1Cl)N[C@@H](CCN1CC[C@@H](CCc2ccc3c(n2)NCCC3)C1)C(=O)O` [Compound 75], the IC50 is less than 50 nM.

With `O=C(N[C@@H](CCN1CC[C@@H](CCc2ccc3c(n2)NCCC3)C1)C(=O)O)c1cc(F)cc(C(F)(F)F)c1` [Compound 76], the IC50 was less than 50 nM.

For the compound `CC(C)(O)CN1CCC[C@H]1C(=O)N[C@@H](CCN1CC[C@@H](CCc2ccc3c(n2)NCCC3)C1)C(=O)O` [Compound 77], the IC50 was less than 50 nM.

As for `CCCCC(=O)N1CCC[C@@H](C(=O)N[C@@H](CCN2CC[C@@H](CCc3ccc4c(n3)NCCC4)C2)C(=O)O)C1` [Compound 78], the IC50 was less than 50 nM.

Take `CC(C)(C)C(=O)N1CCC[C@@H](C(=O)N[C@@H](CCN2CC[C@@H](CCc3ccc4c(n3)NCCC4)C2)C(=O)O)C1` [Compound 79]: the IC50 is less than 50 nM.

In the case of `COC(=O)N1CCC[C@@H](C(=O)N[C@@H](CCN2CC[C@@H](CCc3ccc4c(n3)NCCC4)C2)C(=O)O)C1` [Compound 80], the IC50 is less than 50 nM.

Consider `O=C(O)[C@H](CCN1CC[C@@H](CCc2ccc3c(n2)NCCC3)C1)NC(=O)[C@@H]1CCN1Cc1ccccc1` [Compound 81], for which the IC50 was 50 to 250 nM.
